Among the data in patent publication US5521177A, “Benzimidazoles, pharmaceutical compositions containing these compounds and processes for preparing them” (Dr. Karl Thomae GmbH, priority 1992, dated 1996) are IC50 values, retold here.

Each structure is given as a SMILES string.

This test addresses T1, Angiotensin-II-Receptor (Rattus norvegicus, UniProt P25095).
T1 construct: The tissue (rat's lung) is homogenised in Tris buffer; from tissue; host or cells: rat lung homogenate
T1 sequence (P25095 1-359): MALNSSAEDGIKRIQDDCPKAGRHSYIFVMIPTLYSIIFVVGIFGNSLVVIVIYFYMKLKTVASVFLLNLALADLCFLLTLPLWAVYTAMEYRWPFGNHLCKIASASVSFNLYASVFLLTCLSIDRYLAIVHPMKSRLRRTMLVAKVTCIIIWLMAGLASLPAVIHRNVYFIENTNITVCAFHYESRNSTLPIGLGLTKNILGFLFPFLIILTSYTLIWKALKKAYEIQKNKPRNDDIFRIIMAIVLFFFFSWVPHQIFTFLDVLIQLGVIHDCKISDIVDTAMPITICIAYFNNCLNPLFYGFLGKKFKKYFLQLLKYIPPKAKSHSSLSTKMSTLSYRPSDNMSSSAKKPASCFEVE
Put plainly: Angiotensin-II-Receptor Bonding ([125I]-angiotensin-II displacement, rat's lung homogenate). Format: binding. To be noted: 50 pM [125I]-angiotensin-II, 60 minutes at 37° C., pH 7.40. The method, then: Description of Method: Angiotensin-II-Receptor Bonding
The tissue (rat's lung) is homogenised in Tris buffer (50 mMol Tris, 150 mMol NaCl, 5 mMol EDTA, pH 7.40) and centrifuged twice for 20 minutes each time at 20,000×g. The finished pellet is resuspended in incubation buffer (50 mMol Tris, 5 mMol MgCl2, 0.2% BSA, pH 7.40) 1:75, based on the moist weight of the tissue. Each 0.1 ml of homogenate is incubated for 60 minutes at 37° C. with 50 pM [^125 I]-angiotensin-II (NEN, Dreieich, FRG) and increasing concentrations of the test substance in a total volume of 0.25 ml. The incubation is ended by rapid filtration through glass fibre filter mats. The filters are each washed with 4 ml of ice cold buffer (25 mMol Tris, 2.5 mMol MgCl2, 0.1% BSA, pH 7.40). The bound radioactivity is measured in a gamma-counter. The corresponding IC50 value is determined from the dosage-activity curve.
Substances A to H show the following IC50 values in the test described: […]

In the case of `CCCc1nc2c(C)cc(NC(=NC#N)NC)cc2n1Cc1ccc(-c2ccccc2C(=O)O)cc1` [Substance A, 4'-[[2-n-Propyl-4-methyl-6-(2-cyano-3-methyl-guanidino)-1H-benzimidazol-1-yl]-methyl]-biphenyl-2-carboxylic acid], the IC50 (usually the concentration that gives 50% inhibition) came to 11 nM. The compound `CCCc1nc2c(C)cc(NC(=NC#N)N(C)C)cc2n1Cc1ccc(-c2ccccc2-c2nnn[nH]2)cc1` [Substance B, 4'-[[2-n-propyl-4-methyl-6-(2-cyano-3,3-dimethyl-guanidino) -1H-benzimidazol-1-yl]-methyl]-2-(1H-tetrazol-5-yl)-biphenyl] came in with an IC50 of 3 nM.

With `CCCc1nc2c(C)cc(NC(=C(C#N)C#N)N(C)C)cc2n1Cc1ccc(-c2ccccc2C(=O)O)cc1` [Substance C, 4'-[[2-n-propyl-4-methyl-6-(2,2-dicyano-1-dimethylamino-etheneamino) -1H-benzimidazol-1-yl]-methyl]-biphenyl-2-carboxylic acid], the IC50 is 64 nM. `CCCc1nc2c(C)cc(NC(=C[N+](=O)[O-])N(C)C)cc2n1Cc1ccc(-c2ccccc2C(=O)O)cc1` [Substance D, 4'-[[2-n-propyl-4-methyl-6-(1-dimethylamino-2-nitro-etheneamino) -1H-benzimidazol-1-yl]methyl]-biphenyl-2-carboxylic acid]: the IC50 is 13 nM. Then `CCCc1nc2c(C)cc(NC(=NS(N)(=O)=O)NC)cc2n1Cc1ccc(-c2ccccc2C(=O)O)cc1` [Substance E, 4'-[[2-n-propyl-4-methyl-6-(3-methyl-2-amidosulphonylguanidino) -1H-benzimidazol-1-yl]methyl]-biphenyl-2-carboxylic acid], with 56 nM; and `CCCc1nc2c(C)cc(NC(=C[N+](=O)[O-])N(C)C)cc2n1Cc1ccc(-c2ccccc2-c2nnn[nH]2)cc1` [Substance F, 4'-[[2-n-propyl-4-methyl-6-(1,1-dimethylamino-2-nitro-etheneamino) -1H-benzimidazol-1-yl]-methyl]-2-(1H-tetrazol-5-yl)-biphenyl], with 2 nM; and `CCc1nc2c(C)cc(Nc3c(N(C)C)c(=O)c3=O)cc2n1Cc1ccc(-c2ccccc2C(=O)O)cc1` [Substance G, 4'-[[2-ethyl-4-methyl-6-[(2-dimethylamino-3,4-dioxo-1-cyclobuten-1-yl) -amino]-1H-benzimidazol-1-yl]-methyl]-biphenyl-2-carboxylic acid], with 17 nM. Then `CCc1nc2c(C)cc(NC(=NS(C)(=O)=O)N(C)C)cc2n1Cc1ccc(-c2ccccc2-c2nnn[nH]2)cc1` [Substance H, 4'-[[2-ethyl-4-methyl-6-(3,3-dimethyl-2-methylsulphonyl-guanidino) -1H-benzimidazol-1-yl]methyl]-2-(1H-tetrazol-5-yl)-biphenyl], with 4 nM.
